Results: patent US20200397795A1, “PROPHYLACTIC TREATMENT OF VENOUS THROMBOEMBOLISM” (JANSSEN PHARMACEUTICALS, INC., priority 2019, published 2020)
Read-outs that look alike come from different tables or passages of the source.

What was measured:
[1] = tested on: bleeding events in high-risk, medically ill subjects; assay: MARINER (Study 2): safety, ISTH bleeding and adverse events
Description: (§1) The safety objectives were to compare rivaroxaban with placebo in the following bleeding outcomes in high-risk, medically ill subjects: • Major bleeding using validated International Society on Thrombosis and Haemostasis (ISTH) bleeding criteria. • Non-major clinically relevant (NMCR) bleeding. • Other bleeding.
(§2) Safety assessment was based on bleeding events classified by validated ISTH criteria as major bleeding (principal safety outcome), NMCR bleeding, or Other bleeding. […] The safety outcome of NMCR bleeding was defined as overt bleeding not meeting ISTH criteria for major bleeding, but associated with medical intervention, unscheduled contact (visit or telephone call) with a physician, (temporary) cessation of study treatment, or associated with discomfort for the subject such as pain or impairment of activities of daily life. […] Overall safety was also assessed.
(§3) The principal safety outcome was major bleeding based on validated ISTH criteria. Treatments were compared using the same statistical model (i.e., Cox proportional hazards model) as that for the primary efficacy outcome. The same analyses were used for NMCR bleeding. Safety analyses were based on the safety analysis set and on-treatment analysis phase. Bleeding events were analyzed based on time from randomization to the first occurrence.

[2] = tested on: events prevented vs bleeding events caused; assay: MARINER benefit-risk analysis (excess number of events per 10,000 subjects); format: in vivo, human
Procedure: The benefit-risk of rivaroxaban versus placebo was evaluated based on the excess number of events between treatments for events intended to be prevented (benefits) and events that were caused (risks).
Although the primary efficacy endpoint was not statistically different between rivaroxaban and placebo, the benefit-risk analyses were conducted to further assess the totality of the data. Based on the ITT analysis set and Up-to-Day 45 analysis phase, for 10,000 subjects treated with rivaroxaban up to 45 days, on average, rivaroxaban would prevent 27 events of the composite of symptomatic VTE and VTE-related death, while causing 12 more major bleeding events than with placebo. […] Therefore, focusing instead on major thrombotic events that were fatal or caused potentially irreversible harm, on average, rivaroxaban would prevent 55 events of the composite of nonfatal PE, MI, non-hemorrhagic stroke, and non-hemorrhagic ACM, while causing 2 more events of the composite of critical site bleeding and fatal bleeding than with placebo.

[3] = tested on: bleeding events in high-risk, medically ill subjects; conditions: human, in vivo
Description: as §1, §2, §3

[4] = tested on: events prevented vs bleeding events caused; format: in vivo, human
Description: The same time period was utilized, preventing double counting for fatal bleeds, with all bleeds through Day 35 included (even if off treatment), and bleeding deaths were not counted as CV deaths. Using the primary endpoint, there would be 131 fewer events in the rivaroxaban group with a number-to-treat to benefit (NNT) of 77 to prevent one event, but this was counterbalanced by causing 51 more major bleeds. The benefit risk profile was improved in the subpopulation, with 182 events prevented and only 18 major bleeds caused, with NNT and number-to-treat to harm (NNH) of 55 and 560, respectively. […] More ischemic events were prevented than hemorrhagic events caused in the subpopulation in all five pairs of clinically meaningful endpoints which included asymptomatic and symptomatic VTE and VTE-related death, major bleeding, and fatal and irreversible thrombotic and bleed events. For 35 days of treatment, the number need to treat to prevent 1 event ranged from 55 to 481 for the 5 pairs, while the number needed to harm ranged from 455-1,067.

[5] = MAGELLAN (Study 1): pharmacokinetics; format: in vivo, human; conditions: for AUC: plasma
Procedure: A subset of approximately 125 subjects was to be stratified into 5 groups (of 25 subjects) based on the major diagnoses. The following pharmacokinetic (PK) parameters were calculated on Day 1 and Day 10: area under the plasma concentration curve (AUC), area under the curve normalized to body weight (AUCnorm), area under the curve for the expected dosing interval obtained after single dose administration (AUCτ), AUCτ, norm, maximum serum concentration (Cmax), maximum and normalized serum concentration (Cmax, norm), time to reach maximum concentration in plasma (tmax), half-life (t1/2), and total body clearance of drug from plasma calculated after oral administration (CL/F).

[6] = 10 mg dose stratum, for 10,000 subjects
[7] = for 10,000 subjects treated up to 45 days
[8] = subpopulation, primary endpoint

O=C(NC[C@H]1CN(c2ccc(N3CCOCC3=O)cc2)C(=O)O1)c1ccc(Cl)s1 [Rivaroxaban, 5-chloro-N-({(5S)-2-oxo-3-[4-(3-oxo-4-morpholinyl)phenyl]-1,3,oxazolidin-5-yl}methyl)-2-thiophenecarboxamide]
Fatal bleeding, incidence ([1]; 10 mg dose stratum): 0.04% | Fatal bleeding, incidence ([1]; on-treatment, safety analysis set): 0.03% | AEs with outcome of death, n (%) ([1]; safety analysis set): 95 (1.6) % | Additional critical site and fatal bleeding vs placebo ([2]; 10 mg dose stratum): no additional | Events of composite of nonfatal PE, MI, non-hemorrhagic stroke, non-hemorrhagic ACM prevented vs placebo [2, 6]: 63 events | Events of composite of symptomatic VTE and VTE-related death prevented vs placebo [2, 6]: 33 events | Events of composite of nonfatal PE, MI, non-hemorrhagic stroke, non-hemorrhagic ACM prevented vs placebo [2, 7]: 55 events | More events of composite of critical site bleeding and fatal bleeding than with placebo [2, 7]: 2 events | Events of composite of symptomatic VTE and VTE-related death prevented vs placebo ([2]; for 10,000 subjects treated up to 45 days, ITT): 27 events | More major bleeding events caused than with placebo ([2]; human, in vivo): 12 events | AEs with onset >2 days from stop of study drug, n (%) [3]: 419 (7.0) % | Any AEs, n (%) ([3]; 45 days): 1438 (24.0) % | Discontinued study drug permanently because of NMCR bleeding ([3]; 45 days): 0.7% | Discontinued study drug permanently due to bleeding ([3]; 45 days): 1.1% | Major and NMCR bleeding, event rate ([3]; 45 days): 1.71 100 pt-45 dy | Major bleeding at a critical site, incidence ([3]; 45 days): 0.05% | Major bleeding, event rate ([3]; 45 days): 0.28 100 pt-45 dy | NMCR bleeding, event rate ([3]; 45 days): 1.43 100 pt-45 dy | Other bleeding, event rate ([3]; 45 days): 0.91 100 pt-45 dy | Post-baseline AEs, n (%) ([3]; 45 days): 1430 (23.9) % | Post-baseline SAEs, n (%) ([3]; 45 days): 465 (7.8) % | SAEs with onset >2 days from stop of study drug, n (%) ([3]; 45 days): 169 (2.8) % | SAEs, n (%) ([3]; 45 days): 460 (7.8) % | TEAE COPD ([3]; 45 days): 1.3% | TEAE diarrhoea ([3]; 45 days): 1.1% | TEAE headache ([3]; 45 days): 1.6% | TEAEs, n (%) ([3]; 45 days): 1198 (20.0) % | TESAEs, n (%) ([3]; 45 days): 337 (5.6) % | Number-to-treat to benefit (NNT) to prevent one event ([4]; entire MAGELLAN population, primary endpoint): 77 | Fewer primary endpoint events in the rivaroxaban group ([4]; entire MAGELLAN population, through Day 35): 131 events | Major bleeds caused ([4]; human, in vivo, 35 day): 18 | More major bleeds caused ([4]; human, in vivo, 35 day): 51 | Number needed to harm, range over 5 benefit-risk pairs ([4]; human, in vivo, 35 day): 455-1,067 | Number-to-treat to harm (NNH) ([4]; human, in vivo, 35 day): 560 | Events prevented [4, 8]: 182 events | NNT [4, 8]: 55 | Cmax ([5]; Day 10, subjects with acute infectious disease): 0.1789 µg/mL | AUC ([5]; human, oral, 10 mg, Day 1, overall, 10 mg): 1.64 µg·h/mL | AUC ([5]; human, oral, 10 mg, Day 10, overall, 10 mg): 1.35 µg·h/mL | AUC ([5]; human, oral, 10 mg, Day 10, subjects with CHF NYHA IV): 1.44 µg·h/mL | AUC ([5]; human, oral, 10 mg, Day 10, subjects with acute infectious disease): 1.19 µg·h/mL | Cmax ([5]; human, serum, oral, 10 mg, Day 1, overall, 10 mg, read-out: Cmax): 0.176 µg/mL | Cmax ([5]; human, serum, oral, 10 mg, Day 10, overall, 10 mg, read-out: Cmax): 0.189 µg/mL | Cmax ([5]; human, serum, oral, 10 mg, Day 10, subjects with CHF NYHA IV, read-out: Cmax): 0.192 µg/mL
